Assay results from patent US7211572B2 (Japan Tobacco Inc., priority 2003, dated 2007).
Counter-ions that a name gives are not always drawn.

What follows are compounds tested against T1, HIV integrase (Human immunodeficiency virus type 1 group M subtype B, UniProt P12497, F1332H) (assay: Determination of enzyme (HIV integrase) inhibitory activity). Details: recombinant HIV integrase (F185H), strand transfer ELISA, absorbance at 450 nm.
T1 construct: HIV integrase full length gene; made in house; host or cells: Escherichia coli BL21(DE3), plasmid pET21a-INH
Assay type: biochemical
Procedure, shortened: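 Full-length integrase with F185H, expressed in E. coli and purified, was reacted for 60 min at 37 °C with compound and biotinylated donor DNA bound to streptavidin plates. Target DNA was added for 10 min, then anti-digoxigenin-peroxidase detection at A450; IC50 from % inhibition versus enzyme-free blank.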

Row | Structure (SMILES) | IC50 [µM]
1 | COc1ccc(-c2cn3ccn(Cc4cccc(Cl)c4)c(=O)c3c(O)c2=O)cc1 [Example 133, 2-(3-chlorobenzyl)-9-hydroxy-7-(4-methoxyphenyl)-2H-pyrido[1,2-a]pyrazine-1,8-dione hydrochloride] | < 0.01
2 | CCc1cn2ccn(Cc3cccc(Cl)c3)c(=O)c2c(O)c1=O [Example 134, 2-(3-chlorobenzyl)-7-ethyl-9-hydroxy-2H-pyrido[1,2-a]pyrazine-1,8-dione hydrochloride] | 0.01 to 0.1
3 | Cc1cccc(C)c1-c1cn2ccn(Cc3cccc(Cl)c3)c(=O)c2c(O)c1=O [Example 135, 2-(3-chlorobenzyl)-7-(2,6-dimethylphenyl)-9-hydroxy-2H-pyrido[1,2-a]pyrazine-1,8-dione hydrochloride] | 0.01 to 0.1
4 | O=c1c(-c2cccc(O)c2)cn2ccn(Cc3cccc(Cl)c3)c(=O)c2c1O [Example 136, 2-(3-chlorobenzyl)-9-hydroxy-7-(3-hydroxyphenyl)-2H-pyrido[1,2-a]pyrazine-1,8-dione] | < 0.01
5 | O=C(c1ccccc1)c1cn2ccn(Cc3cccc(Cl)c3)c(=O)c2c(O)c1=O [Example 137, 7-benzoyl-2-(3-chlorobenzyl)-9-hydroxy-2H-pyrido[1,2-a]pyrazine-1,8-dione hydrochloride] | 0.01 to 0.1
6 | CCc1ccccc1-c1cn2ccn(Cc3cccc(Cl)c3)c(=O)c2c(O)c1=O [Example 138, 2-(3-chlorobenzyl)-7-(2-ethylphenyl)-9-hydroxy-2H-pyrido[1,2-a]pyrazine-1,8-dione hydrochloride] | 0.01 to 0.1
7 | CC(C)c1cn(Cc2cccc(Cl)c2)c(=O)c2c(O)c(=O)c(-c3cccc(Cl)c3)cn12 [Example 139, 2-(3-chlorobenzyl)-7-(3-chlorophenyl)-9-hydroxy-4-isopropyl-2H-pyrido[1,2-a]pyrazine-1,8-dione] | 0.01 to 0.1
8 | O=c1c(Cc2ccccc2)cn2ccn(Cc3cccc(Cl)c3)c(=O)c2c1O [Example 140, 7-benzyl-2-(3-chlorobenzyl)-9-hydroxy-2H-pyrido[1,2-a]pyrazine-1,8-dione hydrochloride] | 0.01 to 0.1
9 | O=c1c(-c2ccccc2O)cn2ccn(Cc3cccc(Cl)c3)c(=O)c2c1O [Example 141, 2-(3-chlorobenzyl)-9-hydroxy-7-(2-hydroxyphenyl)-2H-pyrido[1,2-a]pyrazine-1,8-dione] | < 0.01
10 | O=c1c(-c2ccc(O)cc2)cn2ccn(Cc3cccc(Cl)c3)c(=O)c2c1O [Example 142, 2-(3-chlorobenzyl)-9-hydroxy-7-(4-hydroxyphenyl)-2H-pyrido[1,2-a]pyrazine-1,8-dione] | 0.01 to 0.1
11 | Cn1cc2c(c(O)c1=O)C(=O)N(Cc1cccc(C(F)(F)F)c1)CC2 [Example 143, 8-hydroxy-6-methyl-2-(3-trifluoromethylbenzyl)-2,3,4,6-tetrahydro-2,6-naphthyridine-1,7-dione] | 0.1 to 1
12 | COc1cccc(CN2CCc3cn(C)c(=O)c(O)c3C2=O)c1 [Example 144, 8-hydroxy-2-(3-methoxybenzyl)-6-methyl-2,3,4,6-tetrahydro-2,6-naphthyridine-1,7-dione] | 0.01 to 0.1
13 | Cn1nc2ccn(Cc3cccc(Cl)c3)c(=O)c2c(O)c1=O [Example 145, 6-(3-chlorobenzyl)-4-hydroxy-2-methyl-2,6-dihydropyrido[4,3-c]pyridazine-3,5-dione] | 0.1 to 1
14 | O=c1ccn2ncn(Cc3cccc(Cl)c3)c(=O)c2c1O [Example 146, 3-(3-chlorobenzyl)-5-hydroxy-3H-pyrido[2,1-f][1,2,4]triazine-4,6-dione] | 0.1 to 1
15 | COC(=O)c1cn2ccn(Cc3cccc(Cl)c3)c(=O)c2c(O)c1=O [Example 147, methyl 2-(3-chlorobenzyl)-9-hydroxy-1,8-dioxo-1,8-dihydro-2H-pyrido[1,2-a]pyrazine-7-carboxylate hydrochloride] | 0.01 to 0.1
16 | Cn1ccnc1-c1cn2ccn(Cc3cccc(Cl)c3)c(=O)c2c(O)c1=O [Example 148, 2-(3-chlorobenzyl)-9-hydroxy-7-(1-methyl-1H-imidazol-2-yl)-2H-pyrido[1,2-a]pyrazine-1,8-dione hydrochloride] | 0.01 to 0.1
17 | CC(C)C(=O)c1cn2ccn(Cc3cccc(Cl)c3)c(=O)c2c(O)c1=O [Example 149, 2-(3-chlorobenzyl)-9-hydroxy-7-isobutyryl-2H-pyrido[1,2-a]pyrazine-1,8-dione hydrochloride] | < 0.01
18 | CC(C)OC(=O)c1cn2ccn(Cc3cccc(Cl)c3)c(=O)c2c(O)c1=O [Example 150, isopropyl 2-(3-chlorobenzyl)-9-hydroxy-1,8-dioxo-1,8-dihydro-2H-pyrido[1,2-a]pyrazine-7-carboxylate] | 0.01 to 0.1
19 | O=c1ccn2ccn(Cc3ccc(Cl)cc3)c(=O)c2c1O [Example 151, 2-(4-chlorobenzyl)-9-hydroxy-2H-pyrido[1,2-a]pyrazine-1,8-dione hydrochloride] | 0.01 to 0.1
20 | O=C(O)c1cn2ccn(Cc3cccc(Cl)c3)c(=O)c2c(O)c1=O [Example 152, 2-(3-chlorobenzyl)-9-hydroxy-1,8-dioxo-1,8-dihydro-2H-pyrido[1,2-a]pyrazine-7-carboxylic acid hydrochloride] | 0.1 to 1

Row | Structure (SMILES) | IC50 [µM]
21 | CN(C)C(=O)c1cn2ccn(Cc3cccc(Cl)c3)c(=O)c2c(O)c1=O [Example 153, N,N-dimethyl-2-(3-chlorobenzyl)-9-hydroxy-1,8-dioxo-1,8-dihydro-2H-pyrido[1,2-a]pyrazine-7-carboxamide] | 0.01 to 0.1
22 | CC(C)NC(=O)c1cn2ccn(Cc3cccc(Cl)c3)c(=O)c2c(O)c1=O [Example 154, 2-(3-chlorobenzyl)-9-hydroxy-1,8-dioxo-1,8-dihydro-2H-pyrido[1,2-a]pyrazine-7-carboxylic acid isopropylamide] | 0.01 to 0.1
23 | CNC(=O)c1cn2ccn(Cc3cccc(Cl)c3)c(=O)c2c(O)c1=O [Example 155, N-methyl-2-(3-chlorobenzyl)-9-hydroxy-1,8-dioxo-1,8-dihydro-2H-pyrido[1,2-a]pyrazine-7-carboxamide] | < 0.01
24 | CCN(CC)C(=O)c1cn2ccn(Cc3cccc(Cl)c3)c(=O)c2c(O)c1=O [Example 156, N,N-diethyl-2-(3-chlorobenzyl)-9-hydroxy-1,8-dioxo-1,8-dihydro-2H-pyrido[1,2-a]pyrazine-7-carboxamide] | 0.01 to 0.1
25 | O=c1ccn2ccn(Cc3ccc(Br)cc3)c(=O)c2c1O [Example 157, 2-(4-bromobenzyl)-9-hydroxy-2H-pyrido[1,2-a]pyrazine-1,8-dione hydrochloride] | 0.01 to 0.1
26 | O=c1ccn2ccn(Cc3cccc(Br)c3)c(=O)c2c1O [Example 158, 2-(3-bromobenzyl)-9-hydroxy-2H-pyrido[1,2-a]pyrazine-1,8-dione hydrochloride] | 0.01 to 0.1
27 | CC(C)(C)COC(=O)c1cn2ccn(Cc3cccc(Cl)c3)c(=O)c2c(O)c1=O [Example 159, 2,2-dimethylpropyl 2-(3-chlorobenzyl)-9-hydroxy-1,8-dioxo-1,8-dihydro-2H-pyrido[1,2-a]pyrazine-7-carboxylate] | 0.01 to 0.1
28 | O=C(OC1CCCCC1)c1cn2ccn(Cc3cccc(Cl)c3)c(=O)c2c(O)c1=O [Example 160, cyclohexyl 2-(3-chlorobenzyl)-9-hydroxy-1,8-dioxo-1,8-dihydro-2H-pyrido[1,2-a]pyrazine-7-carboxylate] | 0.01 to 0.1
29 | Nc1cn2ccn(Cc3cccc(Cl)c3)c(=O)c2c(O)c1=O [Example 161, 7-amino-2-(3-chlorobenzyl)-9-hydroxy-2H-pyrido[1,2-a]pyrazine-1,8-dione hydrochloride] | 0.01 to 0.1
30 | Cc1nn(Cc2cccc(Cl)c2)c(=O)c2c(O)c(=O)ccn12 [Example 162, 2-(3-chlorobenzyl)-9-hydroxy-4-methyl-2H-pyrido[1,2-d][1,2,4]triazine-1,8-dione hydrochloride] | 0.01 to 0.1
31 | O=c1c(-c2nccs2)cn2ccn(Cc3cccc(Cl)c3)c(=O)c2c1O [Example 163, 2-(3-chlorobenzyl)-9-hydroxy-7-(thiazol-2-yl)-2H-pyrido[1,2-a]pyrazine-1,8-dione hydrochloride] | < 0.01
32 | O=c1c(-c2nnc[nH]2)cn2ccn(Cc3cccc(Cl)c3)c(=O)c2c1O [Example 164, 2-(3-chlorobenzyl)-9-hydroxy-7-(4H-1,2,4-triazol-3-yl)-2H-pyrido[1,2-a]pyrazine-1,8-dione hydrochloride] | 0.01 to 0.1
33 | CC(=O)Nc1cn2ccn(Cc3cccc(Cl)c3)c(=O)c2c(O)c1=O [Example 165, N-[2-(3-chlorobenzyl)-9-hydroxy-1,8-dioxo-1,8-dihydro-2H-pyrido[1,2-a]pyrazin-7-yl]acetamide] | 0.01 to 0.1
34 | COc1cc(Cl)ccc1Cn1ccn2ccc(=O)c(O)c2c1=O [Example 166, 2-(4-chloro-2-methoxybenzyl)-9-hydroxy-2H-pyrido[1,2-a]pyrazine-1,8-dione hydrochloride] | 0.01 to 0.1
35 | NC(=O)c1cn2ccn(Cc3cccc(Cl)c3)c(=O)c2c(O)c1=O [Example 167, 2-(3-chlorobenzyl)-9-hydroxy-1,8-dioxo-1,8-dihydro-2H-pyrido[1,2-a]pyrazine-7-carboxamide] | 0.01 to 0.1
36 | COc1c(Cl)cccc1Cn1ccn2ccc(=O)c(O)c2c1=O [Example 168, 2-(3-chloro-2-methoxybenzyl)-9-hydroxy-2H-pyrido[1,2-a]pyrazine-1,8-dione hydrochloride] | 0.01 to 0.1
37 | O=c1ccn2ccn(CCOc3ccccc3Cl)c(=O)c2c1O [Example 169, 2-[2-(2-chlorophenoxy)ethyl]-9-hydroxy-2H-pyrido[1,2-a]pyrazine-1,8-dione hydrochloride] | 0.1 to 1
38 | O=c1c(-c2ncccn2)cn2ccn(Cc3cccc(Cl)c3)c(=O)c2c1O [Example 170, 2-(3-chlorobenzyl)-9-hydroxy-7-(pyrimidin-2-yl)-2H-pyrido[1,2-a]pyrazine-1,8-dione hydrochloride] | 0.01 to 0.1
39 | CCCNC(=O)c1cn2ccn(Cc3cccc(Cl)c3)c(=O)c2c(O)c1=O [Example 171, N-propyl-2-(3-chlorobenzyl)-9-hydroxy-1,8-dioxo-1,8-dihydro-2H-pyrido[1,2-a]pyrazine-7-carboxamide] | < 0.01
